The numbers were not newly measured in US20110288064A1, “METHODS FOR TREATING DISORDERS ASSOCIATED WITH […] IN A MAMMAL” (priority 2005, published 2011), which cites them from elsewhere.

Entries after “also recorded” stand apart in the source; their conditions may differ. Read-outs that look alike come from different tables or passages of the source.

The conditions of data set [1]: hoFH patients, ezetimibe 10 mg/day added to maximal statin regimen (atorvastatin or simvastatin 80 mg/day).
The conditions of data set [2]: patients, 25 mg/day monotherapy.
For data set [3] the following is noted: animal model for homozygous FH, for example at 25 mg/day.
For data set [4] the following is noted: clinical studies.

For the molecule `O=C1[C@H](CC[C@H](O)c2ccc(F)cc2)[C@@H](c2ccc(O)cc2)N1c1ccc(F)cc1` [ezetimibe], the “total reduction of LDL-C levels” value in data set [1] was 27%. Consider `O=C(NC1CCN(CCCCC2(C(=O)NCC(F)(F)F)c3ccccc3-c3ccccc32)CC1)c1ccccc1-c1ccc(C(F)(F)F)cc1` [BMS-201038, N-(2,2,2-Trifluorethyl)-9-[4-[4-[[[4′-(trifluoromethyl)[1,1′biphenyl]-2-Yl]carbonyl]amino]-1-piperidinyl]butyl]9H-fluorene-9-carboxamide], for which the adverse events entry in data set [2] is “gastrointestinal disturbances, abnormalities in liver function, and hepatic steatosis; also recorded: gastrointestinal disorders, abnormalities in liver function and/or hepatic steatosis”. Further, the plasma cholesterol levels entry in data set [3] is listed as “effectively reduced plasma cholesterol levels in a dose dependent manner”. In the case of `Cc1cc(C)c2c3ccccc3n(Cc3ccc([C@@H](C(=O)N[C@H](CO)c4ccccc4)C4CCCC4)cc3)c2n1` [implitapide, (2S)-2-cyclopentyl-2-[4-[(2,4-dimethyl-9H-pyrido[2,3-b]indol-9-yl)methyl]phenyl]-N-[(1S)-2-hydroxy-1-phenylethyl]ethanamide], the therapeutic efficacy entry in data set [4] (80 mg/day or greater) is “therapeutically effective”. In addition, the adverse events result in data set [4] (80 mg/day or greater (80 mg/day, 160 mg/day)) is “gastrointestinal disturbances, abnormalities in liver function, and hepatic steatosis; also recorded: gastrointestinal disorders, abnormalities in liver function and/or hepatic steatosis”.
